According to patent publication US9101640B2, “Use of Danshensu, Notoginsenoside R1 or their combination in preparation of medicaments for preventing and treating diseases caused by microcirculation disorder” (Tasly Pharmaceutical Group Co., Ltd., priority 2009, dated 2015):
“Also recorded” adds a separate entry of the source.

Tests used:
Type in all cases: in vivo
[1] = test system: plasma albumin leakage from the mesenteric venules; assay: FITC-labeled albumin leakage from venules after I/R; conditions: rat mesenteric I/R; for inhibition of the plasma albumin leakage from the venules after reperfusion: post-administration, 5 mg/kg/h continuous i.v. drip from 20 min after ischemia (DLA: 10 min after I/R); for inhibition of the plasma albumin leakage from the venules after I/R: pre-administration, 5 mg/kg/h continuous i.v. drip from 20 min before ischemia
Description: (§1) The rats were anesthetized by intraperitoneal injection of pentobarbital sodium (30 mg/kg body weight (BW)). PE venous cannulas (#3) were cannulated into the right jugular of the rats and detained. The abdomen of each rat was incised in a length of 20-30 mm along the midline. The ileum near the ileocecal junctions was gently taken out and unfolded onto the object stage mounted with glass slides. The unfolded mesenteries were continuously dripped with Krebs-Ringer buffering solution at 37° C. The microcirculatory dynamics of the mesenteries was observed under white light (12V, 100 W) using an inverted biomicroscope (Diaphot TMD-2S, Nikon, Tokyo) placed in the thermostat at 37° C. Observation sites were selected under 20× object lens, and a video recording system with a time-displaying function was used to record what had been observed on S-VHS tape and preserved. […] Normal saline was administrated at 20 min before ischemia until the end of the observation by continuously intravenous drip via jugular at a dosage of 5 mg/kg/h. PE cannulas were used to ligate non-circulatory mesenteric arteries and veins, so as to observe the arteries and veins for 10 min, and then the ligation was lifted. Time was adjusted to zero and the microcirculatory dynamics under the same visual field was continuously observed for 60 min.
(§2) DLA was administrated at 20 min before ischemia until the end of the observation by continuously intravenous drip via jugular at a dosage of 5 mg/kg/h.
(§3) R1 was administrated at 20 min before ischemia until the end of the observation by continuously intravenous drip via jugular at a dosage of 5 mg/kg/h.
(§4) The combination of DLA and R1 in a weight ratio of 4:1 was administrated at 20 min before ischemia until the end of the observation by continuously intravenous drip via jugular at a dosage of 5 mg/kg/h.
The combination of DLA and R1 in a weight ratio of 1:1 was administrated at 20 min before ischemia until the end of the observation by continuously intravenous drip via jugular at a dosage of 5 mg/kg/h.
The combination of DLA and R1 in a weight ratio of 1:4 was administrated at 20 min before ischemia until the end of the observation by continuously intravenous drip via jugular at a dosage of 5 mg/kg/h.
(§5) DLA was administrated at 10 min after I/R until the end of the observation by continuously intravenous drip via jugular at a dosage of 5 mg/kg/h. […]
(§6) Wherein, 6 rats in each group were taken out, these rats were used for observing the following aspects: the venular diameters; leukocytes rolling, adhesion, and emigration and DHR fluorescence intensities of the venular walls. […]
Microcirculatory dynamics was continuously recorded using an inverted biomicroscope […] recording system (CC-090, Flovel, Tokyo) and SIT fluorescent camera (C-2400-08, Hamamatsu Photonics, Hamamatsu). […]

[2] = test system: leukocytes emigrated from the mesenteric venules; assay: Counting of leukocytes emigrated from venules after I/R; conditions: rat mesenteric I/R
Description: as §1, §2, §3, §4
(§7) The combination of DLA and R1 in a weight ratio of 1:1 was administrated at 20 min before ischemia until the end of the observation by continuously intravenous drip via jugular at a dosage of 5 mg/kg/h. […]
as §6
(§8) Microcirculatory dynamics was continuously recorded using an inverted biomicroscope […] recording system (CC-090, Flovel, Tokyo) and SIT fluorescent camera (C-2400-08, Hamamatsu Photonics, Hamamatsu).
The number of the leukocytes emigrated from the mesenteric venules was observed and counted from the replayed images at the following time points: before ischemia, and 1 min, 10 min, 20 min, 30 min, 40 min, 50 min and 60 min after the beginning of the reperfusion.

[3] = test system: peroxides in the mesenteric venular walls; assay: DHR fluorescence intensities of venular walls (production of peroxides) after I/R; conditions: rat mesenteric I/R
Description: The rats were anesthetized by intraperitoneal injection of pentobarbital sodium (30 mg/kg body weight (BW)). PE venous cannulas (#3) were cannulated into the right jugular of the rats and detained. The abdomen of each rat was incised in a length of 20-30 mm along the midline. The ileum near the ileocecal junctions was gently taken out and unfolded onto the object stage mounted with glass slides. The unfolded mesenteries were continuously dripped with Krebs-Ringer buffering solution at 37° C. The microcirculatory dynamics of the mesenteries was observed under white light (12V, 100 W) using an inverted biomicroscope (Diaphot TMD-2S, Nikon, Tokyo) placed in the thermostat at 37° C. Observation sites were selected under 20× object lens, and a video recording system with a time-displaying function was used to record what had been observed on S-VHS tape and preserved. […] PE cannulas were used to ligate non-circulatory mesenteric arteries and veins, so as to observe the arteries and veins for 10 min, and then the ligation was lifted. Time was adjusted to zero and the microcirculatory dynamics under the same visual field was continuously observed for 60 min. […]
as §5, §6, §8
The H2O2-sensitive fluorescent probes DHR ([…]) were continuously dripped onto the surfaces of the rat's mesenteries to be observed. An inverted fluorescence microscope (DM-IRB, Leica, Germany) with an excitation wavelength at 455 nm and a mercury lamp as an excitation source (100 W) was used. The images were recorded with a CD camera at the following time points: before ischemia, and 1 min, 10 min, 20 min, 30 min, 40 min, 50 min and 60 min after the beginning of the reperfusion. The fluorescence intensities of the venular wall and the extravascular interstitial substance were measured with a Image-Pro Plus 5.0 software. The […] value between the fluorescence intensity of the venular wall and that of the extravascular interstitial substance before ischemia was taken as a baseline. The ratio of the changing value at each time point to the baseline were calculated, which was used to indicate the changing rate of the DHR fluorescence intensities of the rat's mesenteric venular walls.

[4] = test system: leukocytes adhered to the mesenteric venules; assay: Counting of leukocytes adhered to venular walls after I/R; conditions: rat mesenteric I/R
Description: as §1, §2, §3, §4, §7, §6, §8
The leukocytes adhered to the venules which stayed at one site on the venular walls for at least 30 s the adherent leukocytes) was counted from the replayed images at the following time points: before ischemia, and 1 min, 10 min, 20 min, 30 min, 40 min, 50 min and 60 min after the beginning of the reperfusion. […]

[5] = test system: leukocytes rolling along the mesenteric venular walls; assay: Counting of leukocytes rolling along inner walls of venules after I/R; conditions: rat mesenteric I/R
Description: as §1, §2, §3, §4, §7, §6, §8
The leukocytes roiling along the inner walls of the venules in a length of 200 μm within 10 s was counted from the replayed images at the following time points: before ischemia, and 1 min, 10 min, 20 min, 30 min, 40 min, 50 min and 60 min after the beginning of the reperfusion.

[6] = post-administration, 5 mg/kg/h continuous i.v. drip from 20 min after ischemia (DLA: 10 min after I/R)
[7] = pre-administration, 5 mg/kg/h continuous i.v. drip from 20 min before ischemia
[8] = pre-administration, 5 mg/kg/h continuous i.v. drip from 20 min before ischemia, 5 mg/kg

SMILES	inhibition of the plasma albumin leakage from the venules after reperfusion [1]	inhibition of the plasma albumin leakage from the venules after I/R [1]	inhibition of the emigration of leukocytes from the mesenteric venules after I/R [2, 6]	inhibition of the emigration of leukocytes from the mesenteric venules after I/R [2, 7]	inhibition of the production of peroxides in the mesenteric venular walls after I/R (DHR fluorescence) [3, 6]	inhibition of the production of peroxides in the mesenteric venular walls after I/R (DHR fluorescence) [3, 7]	inhibition of the increase in the number of leukocytes adhered to the mesenteric venules caused by I/R [4, 6]	inhibition of the increase in the number of leukocytes adhered to the mesenteric venules caused by I/R [4, 7]	inhibition of leukocytes rolling along the mesenteric venular walls caused by I/R ([5]; post-administration, 5 mg/kg/h continuous i.v. drip from 20 min after ischemia (DLA: 10 min after I/R), 5 mg/kg)	inhibition of leukocytes rolling along the mesenteric venular walls caused by I/R [5, 8]	inhibition of leukocytes rolling along the mesenteric venular walls caused by I/R [5, 6]
CC(C)=CCC[C@](C)(O[C@@H]1O[C@H](CO)[C@@H](O)[C@H](O)[C@H]1O)[C@H]1CC[C@]2(C)[C@@H]1[C@H](O)C[C@@H]1[C@@]3(C)CC[C@H](O)C(C)(C)[C@@H]3[C@@H](O[C@@H]3O[C@H](CO)[C@@H](O)[C@H](O)[C@H]3O[C@@H]3OC[C@@H](O)[C@H](O)[C@H]3O)C[C@]12C [R1, Notoginsenoside R1]	had significant inhibitory effects; also recorded: can inhibit	had significant inhibitory effects; also recorded: can inhibit	had significant inhibitory effects; also recorded: can inhibit	had significant inhibitory effects; also recorded: can inhibit	had no significant inhibitory effects; also recorded: has no inhibitory effects	had no significant inhibitory effects; also recorded: has no inhibitory effects	had significant inhibitory effects; also recorded: can inhibit	had significant inhibitory effects; also recorded: can inhibit	had no significant inhibitory effects; also recorded: have no significant inhibitory effects	had no significant inhibitory effects; also recorded: have no significant inhibitory effects	
O=C(O)C(O)Cc1ccc(O)c(O)c1 (centres unmarked) [DLA, 3,4-dihydroxyphenyl lactic acid]	had significant inhibitory effects; also recorded: has the same effects as those of the pre-administration	had significant inhibitory effects; also recorded: can inhibit	had significant inhibitory effects; also recorded: has the same effects as those of the pre-administration	had significant inhibitory effects; also recorded: can inhibit	had significant inhibitory effects; also recorded: has the same effects as those of the pre-administration	had significant inhibitory effects; also recorded: can inhibit	had significant inhibitory effects; also recorded: has the same effects as those of the pre-administration	had significant inhibitory effects; also recorded: can inhibit		can apparently suppress; also recorded: can inhibit	has the same effects as those of the pre-administration
